# PMC10253321, “Effects of Phosphorylation on the Activity, Inhibition and Stability of Carbonic Anhydrases” (International Journal of Molecular Sciences, 2023)
# Experiments:
# hCAII = system: hCAII; design: method as in PMID 12713833; conditions: pH 7.8; cited from earlier work
# hCAI = system: hCAI; design: method as in PMID 12713833; conditions: pH 7.8; cited from earlier work
# [1] = Esterase activity assay in whole-cell lysates; type: biochemical, human; conditions: kcat/KM vs unmodified isoform
# [2] = Differential scanning fluorimetry; type: physicochemical, human
# Method: The diminished activity of hCAII^S29E and hCAI^S30E can be attributed to protein unfolding or misfolding upon introduction of a charged residue close to the hydrophobic side of the ligand-binding pocket. The phosphomimic hCAII^S29E was only expressed as a soluble protein when using ArcticExpress E. coli at 10 °C but not with T7 Express or C43 (DE3) E. coli. In ArticExpress cells, a cold-adapted chaperonin is co-expressed to assist folding at low temperatures. In addition, hCAI^S30E expresses at a very low yield in the soluble fraction even with the ArcticExpress system, and below detectable levels in T7 Express or C43 (DE3) E. coli. Moreover, an S > E mutation at Ser29 in another cytosolic carbonic anhydrase isoform (hCAIII) destabilizes the protein and decreases the melting temperature from 59 °C to 43 °C in differential scanning fluorimetry (Figure S5).
molecule,measurement,setting,value
"CC(=O)Oc1ccc([N+](=O)[O-])cc1 [pNPA, p-nitrophenyl acetate]",Km,hCAII,2.92 mM
same,Km,hCAI,15.4 mM
"hCAI S30E: human carbonic anhydrase I phosphomimic, Ser30 to Glu",fold decrease in catalytic activity compared to the respective unmodified isoform,[1],2.7 fold
"hCAIII: cytosolic human carbonic anhydrase isoform III (protein, UniProt P07451 2-260, looked up) Carbonic anhydrase 3: AKEWGYASHNGPDHWHELFPNAKGENQSPVELHTKDIRHDPSLQPWSVSYDGGSAKTILNNGKTCRVVFDDTYDRSMLRGGPLPGPYRLRQFHLHWGSSDDHGSEHTVDGVKYAAELHLVHWNPKYNTFKEALKQRDGIAVIGIFLKIGHENGEFQIFLDALDKIKTKGKEAPFTKFDPSCLFPACRDYWTYQGSFTTPPCEECIVWLLLKEPMTVSSDQMAKLRSLLSSAENEPPVPLVSNWRPPQPINNRVVRASFK",melting temperature,[2],59 °C
